Measurements from US8940333B2, “Amphiphilic block copolymers and nanoparticles comprising the same” (priority 2005, dated 2015).

Tests used:
[1] = test system: macrophage culture (RAW 264.7); experiment: In vitro stealth test: reactive oxygen species (DCFDA to DCF) in macrophage culture, flow cytometer; format: cell-based; conditions: RAW 264.7, 1 μm PMA, 24-hour activation (positive control)
erythrocyte = experiment: Hemolysis test (ASTM F756); format: cell-based

| SMILES | mean fluorescent intensity of DCF [1] | Hemolytic grade (erythrocyte) | Hemolytic index (%) (erythrocyte) |
| --- | --- | --- | --- |
| CCCCCCCCCCCCCC(=O)O[C@@H]1[C@@H](C)[C@@]2(O)[C@@H](C=C(CO)C[C@]3(O)C(=O)C(C)=C[C@@H]23)[C@@H]2C(C)(C)[C@]12OC(C)=O [PMA] | 20.13 | – | – |
| CC[C@@]1(O)C(=O)OCc2c1cc1n(c2=O)Cc2cc3ccccc3nc2-1 [Camptothecin] | – | slight hemolysis | 5.84 |
